From ChEMBL document CHEMBL1201862, “PubChem BioAssay data set” (2004)
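Five compound concentrations were applied to cells in 96-well plates for 48 hours; endpoints were derived by simple linear interpolation of the resulting dose-response curve. GI50 = concentration required for 50% inhibition of growth.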 Active and inactive are the calls of the source. No stated cut-off is given here; in the data, active = GI50 up to about 1.1 µM and inactive = higher.

What was measured:
Experiment in all cases: NCI anticancer screen, dose series, 48 h
NCI-H23 = system: NCI-H23
HCC 2998 = system: HCC 2998
CAKI-1 = system: CAKI-1
SK-MEL-2 = system: SK-MEL-2
SK-MEL-5 = system: SK-MEL-5
M14 = system: M14
NCI/ADR-RES = system: NCI/ADR-RES
OVCAR-5 = system: OVCAR-5
EKVX = system: EKVX
A549 = system: A549
TK-10 = system: TK-10
U-251 = system: U-251
HCT-15 = system: HCT-15
NCI-H522 = system: NCI-H522
A498 = system: A498
HT-29 = system: HT-29
OVCAR-4 = system: OVCAR-4
MDA-N = system: MDA-N
KM12 = system: KM12
SK-MEL-28 = system: SK-MEL-28
UACC-257 = system: UACC-257
K562 = system: K562
SN12C = system: SN12C
HOP-62 = system: HOP-62
SNB-75 = system: SNB-75
NCI-H460 = system: NCI-H460
BT-549 = system: BT-549
SF-295 = system: SF-295
CCRF-CEM = system: CCRF-CEM
MDA-MB-435 = system: MDA-MB-435
OVCAR-3 = system: OVCAR-3
UO-31 = system: UO-31
SNB-19 = system: SNB-19
MCF7 = system: MCF7
SR = system: SR
T47D = system: T47D
RXF 393 = system: RXF 393
RPMI-8226 = system: RPMI-8226
Hs-578T = system: Hs-578T
OVCAR-8 = system: OVCAR-8
HL-60 = system: HL-60
LOX IMVI = system: LOX IMVI
MDA-MB-231 = system: MDA-MB-231
786-0 = system: 786-0
ACHN = system: ACHN
HOP-92 = system: HOP-92
DU-145 = system: DU-145
UACC-62 = system: UACC-62
IGROV-1 = system: IGROV-1
HCT-116 = system: HCT-116
SW-620 = system: SW-620
SF-268 = system: SF-268
Malme-3M = system: Malme-3M
SK-OV-3 = system: SK-OV-3
PC-3 = system: PC-3
MOLT-4 = system: MOLT-4
COLO 205 = system: COLO 205
NCI-H226 = system: NCI-H226
SF-539 = system: SF-539

## C/C(=N\O)c1ccc2cc(Br)c3ccccc3c2c1
NCI-H23
  GI50: 20 µM (inactive)
HCC 2998
  GI50: 14.6 µM (inactive)
CAKI-1
  GI50: 25.1 µM (inactive)
SK-MEL-2
  GI50: 15.8 µM (inactive)
SK-MEL-5
  GI50: 16.8 µM (inactive)
M14
  GI50: 18.2 µM (inactive)
NCI/ADR-RES
  GI50: 19.9 µM (inactive)
OVCAR-5
  GI50: 11.5 µM (inactive)
EKVX
  GI50: 19.1 µM (inactive)
A549
  GI50: 37 µM (inactive)
TK-10
  GI50: 20.3 µM (inactive)
U-251
  GI50: 14.6 µM (inactive)
HCT-15
  GI50: 16 µM
NCI-H522
  GI50: 15.1 µM (inactive)
A498
  GI50: 17.7 µM (inactive)
HT-29
  GI50: 2.89 µM (inactive)
OVCAR-4
  GI50: 61.5 µM (inactive)
MDA-N
  GI50: 15.7 µM (inactive)
KM12
  GI50: 15.6 µM (inactive)
SK-MEL-28
  GI50: 19.3 µM (inactive)
UACC-257
  GI50: 16.9 µM (inactive)
K562
  GI50: 46.8 µM (inactive)
SN12C
  GI50: 14.8 µM (inactive)
HOP-62
  GI50: 20.2 µM (inactive)
SNB-75
  GI50: 28.1 µM (inactive)
NCI-H460
  GI50: 16.2 µM (inactive)
BT-549
  GI50: 27.5 µM (inactive)
SF-295
  GI50: 15.6 µM (inactive)
CCRF-CEM
  GI50: 17.5 µM (inactive)
MDA-MB-435
  GI50: 24.2 µM (inactive)
OVCAR-3
  GI50: 16.9 µM (inactive)
UO-31
  GI50: 15.7 µM (inactive)
SNB-19
  GI50: 33.4 µM (inactive)
MCF7
  GI50: 17.2 µM (inactive)
SR
  GI50: 24.6 µM (inactive)
T47D
  GI50: 22.5 µM (inactive)
RXF 393
  GI50: 14.8 µM (inactive)
RPMI-8226
  GI50: 17 µM (inactive)
Hs-578T
  GI50: 23.9 µM (inactive)
OVCAR-8
  GI50: 24.8 µM (inactive)
HL-60
  GI50: 20.7 µM (inactive)
LOX IMVI
  GI50: 15.6 µM (inactive)
MDA-MB-231
  GI50: 15.3 µM (inactive)
786-0
  GI50: 15.1 µM (inactive)
ACHN
  GI50: 23.6 µM (inactive)
HOP-92
  GI50: 21 µM (inactive)
DU-145
  GI50: 39.4 µM (inactive)
UACC-62
  GI50: 17.7 µM (inactive)
IGROV-1
  GI50: 28 µM (inactive)
HCT-116
  GI50: 11.9 µM (inactive)
SW-620
  GI50: 23.1 µM (inactive)
SF-268
  GI50: 26.2 µM (inactive)
Malme-3M
  GI50: 19.8 µM (inactive)
SK-OV-3
  GI50: 32.3 µM (inactive)

## CCCOC1OC(CS(=O)(=O)O)C(O)C(O)C1O (stereo unspecified)
NCI-H23
  GI50: > 100 µM (inactive)
HCC 2998
  GI50: > 100 µM (inactive)
CAKI-1
  GI50: > 100 µM (inactive)
SK-MEL-2
  GI50: > 100 µM (inactive)
SK-MEL-5
  GI50: > 100 µM (inactive)
M14
  GI50: > 100 µM (inactive)
NCI/ADR-RES
  GI50: > 100 µM (inactive)
OVCAR-5
  GI50: > 100 µM (inactive)
TK-10
  GI50: > 100 µM (inactive)
U-251
  GI50: > 100 µM (inactive)
HCT-15
  GI50: > 100 µM
A498
  GI50: > 100 µM (inactive)
HT-29
  GI50: > 100 µM (inactive)
OVCAR-4
  GI50: > 100 µM (inactive)
MDA-N
  GI50: > 100 µM (inactive)
PC-3
  GI50: > 100 µM (inactive)
KM12
  GI50: > 100 µM (inactive)
SK-MEL-28
  GI50: > 100 µM (inactive)
UACC-257
  GI50: > 100 µM (inactive)
K562
  GI50: > 100 µM (inactive)
SN12C
  GI50: > 100 µM (inactive)
HOP-62
  GI50: > 100 µM (inactive)
SNB-75
  GI50: > 100 µM (inactive)
NCI-H460
  GI50: > 100 µM (inactive)
MOLT-4
  GI50: > 100 µM (inactive)
BT-549
  GI50: > 100 µM (inactive)
SF-295
  GI50: > 100 µM (inactive)
CCRF-CEM
  GI50: > 100 µM (inactive)
MDA-MB-435
  GI50: > 100 µM (inactive)
OVCAR-3
  GI50: > 100 µM (inactive)
UO-31
  GI50: > 100 µM (inactive)
SNB-19
  GI50: > 100 µM (inactive)
MCF7
  GI50: > 100 µM (inactive)
COLO 205
  GI50: > 100 µM (inactive)
SR
  GI50: > 100 µM (inactive)
T47D
  GI50: > 100 µM (inactive)
RXF 393
  GI50: > 100 µM (inactive)
RPMI-8226
  GI50: > 100 µM (inactive)
Hs-578T
  GI50: > 100 µM (inactive)
OVCAR-8
  GI50: > 100 µM (inactive)
HL-60
  GI50: > 100 µM (inactive)
NCI-H226
  GI50: > 100 µM (inactive)
LOX IMVI
  GI50: > 100 µM (inactive)
HOP-92
  GI50: > 100 µM (inactive)
DU-145
  GI50: > 100 µM (inactive)
UACC-62
  GI50: > 100 µM (inactive)
IGROV-1
  GI50: > 100 µM (inactive)
HCT-116
  GI50: > 100 µM (inactive)
SW-620
  GI50: > 100 µM (inactive)
Malme-3M
  GI50: > 100 µM (inactive)
SK-OV-3
  GI50: > 100 µM (inactive)

## C=C(NC(=O)C(=C)NC(=O)c1ccc2c(n1)-c1coc(n1)C(=C)NC(=O)C(=C)NC(=O)c1nc(oc1C)C(=C)NC(=O)C(C(C)(C)O)NC(=O)C(=C)NC(=O)c1coc(n1)/C(=C/C)NC(=O)[C@H]([C@@H](C)O)NC(=O)c1csc-2n1)C(N)=O (stereo partly specified)
NCI-H23
  GI50: > 87.5 µM (inactive)
HCC 2998
  GI50: > 87.5 µM (inactive)
CAKI-1
  GI50: > 87.5 µM (inactive)
SK-MEL-2
  GI50: > 87.5 µM (inactive)
SK-MEL-5
  GI50: 41.6 µM (inactive)
M14
  GI50: 55 µM (inactive)
NCI/ADR-RES
  GI50: > 87.5 µM (inactive)
OVCAR-5
  GI50: > 87.5 µM (inactive)
EKVX
  GI50: > 87.5 µM (inactive)
A549
  GI50: > 87.5 µM (inactive)
TK-10
  GI50: > 87.5 µM (inactive)
U-251
  GI50: > 87.5 µM (inactive)
HCT-15
  GI50: > 87.5 µM
NCI-H522
  GI50: > 87.5 µM (inactive)
A498
  GI50: > 87.5 µM (inactive)
HT-29
  GI50: > 8.75 µM (inactive)
OVCAR-4
  GI50: > 87.5 µM (inactive)
SF-539
  GI50: > 87.5 µM (inactive)
MDA-N
  GI50: > 87.5 µM (inactive)
PC-3
  GI50: > 87.5 µM (inactive)
KM12
  GI50: 66.7 µM (inactive)
SK-MEL-28
  GI50: > 87.5 µM (inactive)
UACC-257
  GI50: > 87.5 µM (inactive)
K562
  GI50: > 87.5 µM (inactive)
SN12C
  GI50: > 87.5 µM (inactive)
HOP-62
  GI50: 81.5 µM (inactive)
SNB-75
  GI50: > 87.5 µM (inactive)
NCI-H460
  GI50: 59.2 µM (inactive)
MOLT-4
  GI50: > 87.5 µM (inactive)
BT-549
  GI50: 37.3 µM (inactive)
SF-295
  GI50: > 87.5 µM (inactive)
CCRF-CEM
  GI50: > 87.5 µM (inactive)
MDA-MB-435
  GI50: > 87.5 µM (inactive)
OVCAR-3
  GI50: > 87.5 µM (inactive)
UO-31
  GI50: > 87.5 µM (inactive)
SNB-19
  GI50: > 87.5 µM (inactive)
MCF7
  GI50: > 87.5 µM (inactive)
COLO 205
  GI50: 72.9 µM (inactive)
SR
  GI50: > 87.5 µM (inactive)
RXF 393
  GI50: > 87.5 µM (inactive)
RPMI-8226
  GI50: > 87.5 µM (inactive)
Hs-578T
  GI50: > 87.5 µM (inactive)
OVCAR-8
  GI50: > 87.5 µM (inactive)
HL-60
  GI50: > 87.5 µM (inactive)
NCI-H226
  GI50: > 87.5 µM (inactive)
LOX IMVI
  GI50: 53.8 µM (inactive)
MDA-MB-231
  GI50: > 87.5 µM (inactive)
786-0
  GI50: > 87.5 µM (inactive)
ACHN
  GI50: > 87.5 µM (inactive)
HOP-92
  GI50: > 87.5 µM (inactive)
DU-145
  GI50: > 87.5 µM (inactive)
IGROV-1
  GI50: 61.1 µM (inactive)
HCT-116
  GI50: > 87.5 µM (inactive)
SW-620
  GI50: > 87.5 µM (inactive)
SF-268
  GI50: > 87.5 µM (inactive)
Malme-3M
  GI50: > 87.5 µM (inactive)
